Measurements as given in patent US20230131192A1, “1H-PYRAZOLO[4,3-d]PYRIMIDINE COMPOUNDS AS TOLL-LIKE RECEPTOR 7 (TLR7) AGONISTS” (BRISTOL-MYERS SQUIBB COMPANY, priority 2020, published 2023).

How the values were obtained:
[1] = tested on: CD69; experiment: Induction of CD69 in human whole blood; format: cell-based; conditions: 17 hrs, CD69 surface staining, 100% set to 1 uM of resiquimod, average where assay was performed multiple times, read-out: hWB CD69 EC50
Method: The induction of Type I interferon (IFN) MX-1 genes and the B-cell activation marker CD69 are downstream events that occur upon activation of the TLR7 pathway. The following is a human whole blood assay that measures their induction in response to a TLR7 agonist.
Heparinized human whole blood was harvested from human subjects and treated with test TLR7 agonist compounds at 1 mM. The blood was diluted with RPMI 1640 media and Echo was used to predot 10 nL per well giving a final concentration of 1 uM (10 nL in 10 uL of blood). After mixing on a shaker for 30 sec, the plates were covered and placed in a 37° C. chamber for o/n=17 hrs. Fixing/lysis buffer was prepared (5×→1× in H2O, warm at 37° C.; Cat # BD 558049) and kept the perm buffer (on ice) for later use.
For surface markers staining (CD69): prepared surface Abs: 0.045 ul hCD14-FITC (ThermoFisher Cat # MHCD1401)+0.6 ul hCD19-ef450 (ThermoFisher Cat #48-0198-42)+1.5 ul hCD69-PE (cat # BD555531)+0.855 ul FACS buffer. Added 3 ul/well, spin1000 rpm for 1 min and mixed on shaker for 30 sec, put on ice for 30 mins. Stop stimulation after 30 minutes with 70 uL of prewarmed 1× fix/lysis buffer and use Feliex mate to resuspend (15 times, change tips for each plate) and incubate at 37 C for 10 minutes.
Centrifuge at 2000 rpm for 5 minutes aspirate with HCS plate washer, mix on shaker for 30 sec and then wash with 70 uL in dPBS and pelleted 2×s (2000 rpm for 5 min) and 50 ul wash in FACS buffer pelleted 1×s(2000 rpm for 5 min). Mix on shaker for 30 sec. For Intracellular markers staining (MX-1): Add 50 ul of BD Perm buffer III and mix on shaker for 30 sec. Incubate on ice for 30 minutes (in the dark). Wash with 50 uL of FACS buffer 2× (spin @2300 rpm×5 min after perm) followed by mixing on shaker for 30 sec. Resuspended in 20 ul of FACS buffer containing MX1 antibody ( )(4812)-Alexa 647: Novus Biologicals #NBP2-43704AF647) 20 ul FACS bf+0.8 ul hlgG+0.04 ul MX-1. Spin 1000 rpm for 1 min, mix on shaker for 30se and the samples were incubated at RT in the dark for 45 minutes followed by washing 2×FACS buffer (spin @2300 rpm×5 min after perm). Resuspend 20 ul (35 uL total per well) of FACS buffer and cover with foil and place in 4° C. to read the following day. Plates were read on iQuePlus. The results were loaded into toolset and […] curves are generated in curve master. The y-axis 100% is set to 1 uM of resiquimod.

[2] = molecular target: T1, human TLR7 (Homo sapiens, UniProt Q9NYK1); experiment: Human TLR7 agonist (reporter) activity assay, HEK-Blue TLR7 cells, SEAP reporter; format: cell-based; conditions: 18 h treatment, average where assay was performed multiple times, read-out: hTLR7 Agonism EC50
T1 construct: host or cells: HEK-Blue TLR7 cells (engineered human embryonic kidney cells)
T1 sequence (Q9NYK1 27-1049): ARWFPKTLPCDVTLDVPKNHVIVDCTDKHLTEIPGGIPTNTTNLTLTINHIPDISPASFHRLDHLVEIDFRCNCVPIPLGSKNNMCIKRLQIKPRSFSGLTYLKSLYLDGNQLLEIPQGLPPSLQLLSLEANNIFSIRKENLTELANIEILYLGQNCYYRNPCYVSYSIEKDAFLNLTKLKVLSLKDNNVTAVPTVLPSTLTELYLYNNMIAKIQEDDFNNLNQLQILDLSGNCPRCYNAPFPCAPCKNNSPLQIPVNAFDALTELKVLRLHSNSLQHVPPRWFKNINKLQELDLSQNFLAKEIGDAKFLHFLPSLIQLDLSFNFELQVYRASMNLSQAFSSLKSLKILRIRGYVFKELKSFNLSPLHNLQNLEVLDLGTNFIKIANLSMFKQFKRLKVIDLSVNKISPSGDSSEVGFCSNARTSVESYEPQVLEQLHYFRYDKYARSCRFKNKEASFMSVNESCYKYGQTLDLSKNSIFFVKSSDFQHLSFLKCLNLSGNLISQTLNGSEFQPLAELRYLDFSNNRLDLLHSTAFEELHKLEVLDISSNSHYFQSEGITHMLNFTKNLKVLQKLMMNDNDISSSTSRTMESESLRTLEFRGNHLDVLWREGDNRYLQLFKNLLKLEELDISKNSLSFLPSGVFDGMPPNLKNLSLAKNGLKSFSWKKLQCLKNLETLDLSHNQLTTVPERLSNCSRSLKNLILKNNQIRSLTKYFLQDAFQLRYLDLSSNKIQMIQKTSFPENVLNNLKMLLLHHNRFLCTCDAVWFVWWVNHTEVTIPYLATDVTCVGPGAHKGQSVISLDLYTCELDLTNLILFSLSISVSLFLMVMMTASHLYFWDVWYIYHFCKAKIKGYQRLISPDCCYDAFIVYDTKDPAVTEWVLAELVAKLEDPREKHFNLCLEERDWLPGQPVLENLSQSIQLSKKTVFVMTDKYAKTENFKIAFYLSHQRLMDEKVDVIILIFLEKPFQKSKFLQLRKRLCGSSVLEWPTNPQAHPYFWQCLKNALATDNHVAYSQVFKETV
Method: This procedure describes a method for assaying human TLR7 (hTLR7) agonist activity of the compounds disclosed in this specification.
HEK-Blue™ TLR7 cells were added to each well of a 384-well tissue-culture plate (15,000 cells per well) and incubated 16-18 h at 37° C., 5% CO2. Compounds (100 nl) were dispensed into wells containing the HEK-Blue™ TLR cells and the treated cells were incubated at 37° C., 5% CO2. After 18 h treatment ten microliters of freshly-prepared Quanti-Blue™ reagent (Invivogen) was added to each well, incubated for 30 min (37° C., 5% CO2) and SEAP levels measured using an Envision plate reader (OD=620 nm). The half maximal effective concentration values (EC50; compound concentration which induced a response halfway between the assay baseline and maximum) were calculated.

Row | EC50 [1] [µM] | EC50 [2] [µM] | Compound
1 | 0.085 | 1.35 | COc1cc(CNC2CCOCC2)cnc1Cn1ncc2nc(N)nc(NCc3noc(C)n3)c21 [Compound 130, 1-[(3-methoxy-5-{[(oxan-4-yl)amino]methyl}pyridin-2-yl)methyl]-N7-[(5-methyl-1,2,4-oxadiazol-3-yl)methyl]-1H-pyrazolo[4,3-d]pyrimidine-5,7-diamine]
2 | 0.0727 | 1 | COc1cc(CN2CCN(CCO)CC2)cnc1Cn1ncc2nc(N)nc(NCc3noc(C)n3)c21 [Compound 131, 2-[4-({6-[(5-amino-7-{[(5-methyl-1,2,4-oxadiazol-3-yl)methyl]amino}-1H-pyrazolo[4,3-d]pyrimidin-1-yl)methyl]-5-methoxypyridin-3-yl}methyl)piperazin-1-yl]ethan-1-ol]
